“Also recorded” adds a separate entry of the source.
Legend:
[1] = test system: S. enterica serovar typhimurium-tested strains; experiment: Cytotoxic effect in bacterial strains (CFU survival); format: cell-based, Salmonella enterica serovar typhimurium; conditions: presence and absence of exogenous metabolic activation (data not shown)
Protocol: To determine the cytotoxic effect, after 60 min incubation, the assay mixtures were diluted in 0.9% NaCl (w/v) to obtain a suspension containing 2 × 10^2 cells/mL. A suitable aliquot (100 μL) of this suspension was plated on nutrient agar (0.8% bacto nutrient broth (Difco), 0.5% NaCl, and 1.5% agar). The plates were then incubated at 37°C for 24 h, and the colony-forming units (CFU) were counted to obtain the percentage of survival. All the experiments were done in triplicate and were repeated at least twice.

[2] = test system: Salmonella enterica serovar typhimurium TA1535; experiment: Antimutagenicity assay (Salmonella/microsome), strain TA1535; format: cell-based; conditions: TA1535, cotreatment
Text: (§1) Salmonella enterica serovar typhimurium (S. typhimurium) strains TA100, TA1535, TA104, and TA102 from the authors' laboratory stock were used as described by Maron and Ames in the antimutagenicity assay.
(§2) We carried out the coexposure protocol of the antimutagenicity assay to investigate the potential of the compound to protect against alkylation-mediated genetic mutation in S. typhimurium TA100, TA102, TA104, and TA1535 strains according to Ajith and Soja. The test proceeded both in the absence and presence of a metabolic activation system (4% S9 mix, Aroclor preinduced, from MOLTOX Inc., USA). DMSO 1% served as the negative control. […] The mixtures were incubated in a shaker at 37°C (preincubation) under light protection. After a total of 60 min of cotreatment, the mixtures were added to and mixed with 2 mL top agar containing 0.05 mmol/L L-histidine and D-biotin for the S. typhimurium strains. Each of these was then spread on a minimal glucose agar (1.5% agar, Vogel-Bonner medium E, containing 2% glucose) plate. After the top agar solidified, the plates were incubated at 37°C for 60–72 h. Each tester strain was assayed in triplicate and repeated at least twice, and the number of revertant colonies was counted for each tester strain and treatment group. The counts of revertant colonies were obtained to build a dose-response curve and calculate the percentage of reduction.

[3] = test system: Salmonella enterica serovar typhimurium TA104; experiment: Antimutagenicity assay (Salmonella/microsome), strain TA104; format: cell-based; conditions: TA104, cotreatment
Text: as §1, §2

HepG2 cells = experiment: Cytoprotective assay of HepG2 cells (WST-1, coexposure with alkylating agent at LC50); format: cell-based, Human; conditions: 24 h coexposure with 20 μM MMS, AVA at 1.0 and 10.0 μM
Protocol: After 24 h of coexposure, the culture medium was replaced by a 90 μL fresh culture medium and 10 μL WST-1 and incubated at 37°C and 5% CO2 for 2 h. The absorbance was then measured following the protocol as described before. The survival rates were determined in comparison to the negative control.

[4] = DPPH free radical scavenging assay; format: biochemical; conditions: absorbance at 517 nm
Protocol: The free radical scavenging activity was measured by following microplate procedures as previously described. One hundred microliters of the sample dilutions with five concentration levels (varying from 0 to 2000 μM in DMSO) was added to two identical groups of wells in a 96-well microplate. The same volume of 0.1 mM DPPH-methanol solution was added to each well of one group (samples), and methanol ([…]) was added to the other group (blanks). The control was prepared by mixing the DPPH-methanol solution with the sample solvent or butylated hydroxytoluene (BHT). The solutions were mixed thoroughly, covered, and allowed to react in the dark at room temperature for 40 min. The absorbance was measured at 517 nm using a microplate reader (Quant, BioTek Instruments Inc.), and the scavenging activity was calculated from the absorbance values according to the following equation: […]. The antioxidant properties of the samples were expressed as half the maximal effective concentrations (EC50) obtained by interpolation from the linear regression analysis. BHT was used as the positive control.

[5] = +S9, CPA (150 μM), atorvastatin 20 μM
[6] = +S9, CPA (150 μM), atorvastatin 100 μM
[7] = +S9, CPA (150 μM), atorvastatin 200 μM
[8] = +S9, CPA (150 μM), atorvastatin 200 μM, listed as Atorvastatin
[9] = +S9, CPA (150 μM), atorvastatin 1000 μM
[10] = +S9, CPA (150 μM), atorvastatin 1000 μM, listed as Atorvastatin
[11] = −S9, MMS (100 μM), atorvastatin 20 μM
[12] = −S9, MMS (100 μM), atorvastatin 100 μM
[13] = −S9, MMS (100 μM), atorvastatin 200 μM
[14] = −S9, MMS (100 μM), atorvastatin 1000 μM

## CC(C)c1c(C(=O)Nc2ccccc2)c(-c2ccccc2)c(-c2ccc(F)cc2)n1CC[C@@H](O)C[C@@H](O)CC(=O)O [AVA, atorvastatin]
[1]
  Cytotoxic effect to bacterial strains: no cytotoxic effect
[2]; [5]
  % reduction: 9.44%
  His+ (revertant colonies): 53 ± 3
[2]; [6]
  % reduction: 11.11%
  His+ (revertant colonies): 52 ± 7
[2]; [7]
  % reduction: 30.6%
  His+ (revertant colonies): 45 ± 4
[2]; [8]
  % reduction: 30.56^∗ %
[2]; [9]
  % reduction: 42.2%
  His+ (revertant colonies): 41 ± 8
[2]; [10]
  % reduction: 42.22^∗ %
[2]; [11]
  % reduction: 45.65^∗ %
  His+ (revertant colonies): 50 ± 4
[2]; [12]
  % reduction: 67.39^∗ %
  His+ (revertant colonies): 40 ± 5
[2]; [13]
  % reduction: 86.95^∗ %
  His+ (revertant colonies): 31 ± 2
[2]; [14]
  % reduction: 91.30^∗ %
  His+ (revertant colonies): 29 ± 3
[3]; [5]
  % reduction: 19.29%
  His+ (revertant colonies): 969 ± 54
[3]; [6]
  % reduction: 25%
  His+ (revertant colonies): 933 ± 38
[3]; +S9, CPA (150 μM), atorvastatin 100 μM, listed as Atorvastatin
  % reduction: 25.00^∗ %
[3]; [7]
  % reduction: 29%
  His+ (revertant colonies): 905 ± 42
[3]; [8]
  % reduction: 29.29^∗ %
[3]; [9]
  % reduction: 41%
  His+ (revertant colonies): 829 ± 11
[3]; [10]
  % reduction: 41.43^∗ %
[3]; [11]
  % reduction: 19.36%
  His+ (revertant colonies): 801 ± 32
[3]; [12]
  % reduction: 24.19%
  His+ (revertant colonies): 776 ± 64
[3]; [13]
  % reduction: 32.3%
  His+ (revertant colonies): 736 ± 91
[3]; −S9, MMS (100 μM), atorvastatin 200 μM, listed as Atorvastatin
  % reduction: 32.26^∗ %
[3]; [14]
  % reduction: 55.7%
  His+ (revertant colonies): 620 ± 28
[3]; −S9, MMS (100 μM), atorvastatin 1000 μM, listed as Atorvastatin
  % reduction: 55.65^∗ %
HepG2 cells
  Cytoprotective effect (survival of HepG2 coexposed to MMS): significant protection; also recorded: significant cytoprotective effect
[4]
  EC50: 274 ± 3 µM
